# ChEMBL document CHEMBL5465560, “Selectivity Literature for EUbOPEN Chemogenomic Library” (2024)
# Columns and labels:
# [1] = molecular target: Ribosomal protein S6 kinase beta-1 (Homo sapiens, UniProt P23443); assay: Selectivity interaction (Ambit KINOMEscan and KiNATiv profiling in Jurkat cells) EUB0000090b RPS6KB1; format: cell-based; settings: at 1 µM
# [2] = molecular target: Histone-lysine N-methyltransferase SUV39H2 (Homo sapiens) (UniProt Q9H5I1); assay: Selectivity interaction (Transferase panel (protein, RNA, and DNA methyltransferases. and EP300 (acetyltransferase))) EUB0000270b SUV39H2
# Histone-lysine N-methyltransferase SUV39H2 (Homo sapiens), sequence (Q9H5I1 whole entry): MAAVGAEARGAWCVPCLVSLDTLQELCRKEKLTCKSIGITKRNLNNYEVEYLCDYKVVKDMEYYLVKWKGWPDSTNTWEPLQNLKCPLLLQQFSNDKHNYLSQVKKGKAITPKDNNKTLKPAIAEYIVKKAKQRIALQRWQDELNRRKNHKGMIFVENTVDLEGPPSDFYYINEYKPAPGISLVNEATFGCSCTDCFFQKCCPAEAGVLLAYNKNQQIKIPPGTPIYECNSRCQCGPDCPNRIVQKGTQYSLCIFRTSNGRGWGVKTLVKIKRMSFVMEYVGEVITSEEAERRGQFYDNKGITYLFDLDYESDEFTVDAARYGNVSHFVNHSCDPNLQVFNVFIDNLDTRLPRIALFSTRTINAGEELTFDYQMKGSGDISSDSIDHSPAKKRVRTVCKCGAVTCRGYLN
# [3] = molecular target: Wee1-like protein kinase 2 (Homo sapiens) (UniProt P0C1S8); assay: Selectivity interaction (KinomeScan (DiscoverX)) EUB0000595a WEE2; settings: at 10 µM
# Wee1-like protein kinase 2 (Homo sapiens), sequence (P0C1S8 whole entry, looked up): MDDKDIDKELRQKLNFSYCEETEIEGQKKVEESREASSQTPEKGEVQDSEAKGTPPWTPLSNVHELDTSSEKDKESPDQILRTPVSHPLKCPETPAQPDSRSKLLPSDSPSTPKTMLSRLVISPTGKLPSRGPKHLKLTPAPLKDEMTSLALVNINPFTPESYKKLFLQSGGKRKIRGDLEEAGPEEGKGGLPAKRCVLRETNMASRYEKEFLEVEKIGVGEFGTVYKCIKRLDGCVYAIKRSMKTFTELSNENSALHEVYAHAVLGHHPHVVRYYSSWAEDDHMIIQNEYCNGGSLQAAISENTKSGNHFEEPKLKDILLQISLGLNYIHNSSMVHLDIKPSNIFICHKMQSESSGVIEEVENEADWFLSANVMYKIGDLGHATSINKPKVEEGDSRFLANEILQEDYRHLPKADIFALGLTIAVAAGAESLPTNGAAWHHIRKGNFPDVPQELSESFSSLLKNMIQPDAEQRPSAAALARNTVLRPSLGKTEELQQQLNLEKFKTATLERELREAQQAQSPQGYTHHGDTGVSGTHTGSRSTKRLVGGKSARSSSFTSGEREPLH
# [4] = molecular target: NT-3 growth factor receptor (Homo sapiens, UniProt Q16288); assay: Selectivity interaction (KinomeScan (DiscoverX)) EUB0001079a NTRK3; settings: at 1 µM
# NT-3 growth factor receptor, sequence (Q16288 32-839 limits assumed): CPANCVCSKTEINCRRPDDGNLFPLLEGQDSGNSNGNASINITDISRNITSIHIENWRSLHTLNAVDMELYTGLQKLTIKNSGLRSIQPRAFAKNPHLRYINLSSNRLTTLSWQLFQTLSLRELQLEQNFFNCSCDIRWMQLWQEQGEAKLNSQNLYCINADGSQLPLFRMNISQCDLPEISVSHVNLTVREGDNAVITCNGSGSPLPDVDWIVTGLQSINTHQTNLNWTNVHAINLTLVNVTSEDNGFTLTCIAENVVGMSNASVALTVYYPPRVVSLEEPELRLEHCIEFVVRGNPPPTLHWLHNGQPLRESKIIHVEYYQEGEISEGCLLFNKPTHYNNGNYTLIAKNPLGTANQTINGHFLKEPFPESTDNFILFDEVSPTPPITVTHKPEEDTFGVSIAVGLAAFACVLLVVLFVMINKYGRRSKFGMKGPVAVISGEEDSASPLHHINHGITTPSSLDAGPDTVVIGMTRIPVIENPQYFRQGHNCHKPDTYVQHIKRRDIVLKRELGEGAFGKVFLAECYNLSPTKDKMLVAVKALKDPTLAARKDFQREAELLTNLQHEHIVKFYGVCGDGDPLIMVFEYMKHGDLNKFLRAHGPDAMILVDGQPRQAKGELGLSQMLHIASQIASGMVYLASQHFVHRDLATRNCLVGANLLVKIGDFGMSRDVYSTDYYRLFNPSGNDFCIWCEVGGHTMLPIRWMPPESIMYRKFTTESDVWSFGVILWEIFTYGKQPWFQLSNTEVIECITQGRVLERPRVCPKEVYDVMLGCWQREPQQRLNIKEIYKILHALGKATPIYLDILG
# [5] = molecular target: T1, Dual serine/threonine and tyrosine protein kinase (Homo sapiens) (UniProt Q6XUX3); assay: Selectivity interaction (KinomeScan (DiscoverX)) EUB0000618a DSTYK; settings: at 10 µM
# T1 sequence (whole entry): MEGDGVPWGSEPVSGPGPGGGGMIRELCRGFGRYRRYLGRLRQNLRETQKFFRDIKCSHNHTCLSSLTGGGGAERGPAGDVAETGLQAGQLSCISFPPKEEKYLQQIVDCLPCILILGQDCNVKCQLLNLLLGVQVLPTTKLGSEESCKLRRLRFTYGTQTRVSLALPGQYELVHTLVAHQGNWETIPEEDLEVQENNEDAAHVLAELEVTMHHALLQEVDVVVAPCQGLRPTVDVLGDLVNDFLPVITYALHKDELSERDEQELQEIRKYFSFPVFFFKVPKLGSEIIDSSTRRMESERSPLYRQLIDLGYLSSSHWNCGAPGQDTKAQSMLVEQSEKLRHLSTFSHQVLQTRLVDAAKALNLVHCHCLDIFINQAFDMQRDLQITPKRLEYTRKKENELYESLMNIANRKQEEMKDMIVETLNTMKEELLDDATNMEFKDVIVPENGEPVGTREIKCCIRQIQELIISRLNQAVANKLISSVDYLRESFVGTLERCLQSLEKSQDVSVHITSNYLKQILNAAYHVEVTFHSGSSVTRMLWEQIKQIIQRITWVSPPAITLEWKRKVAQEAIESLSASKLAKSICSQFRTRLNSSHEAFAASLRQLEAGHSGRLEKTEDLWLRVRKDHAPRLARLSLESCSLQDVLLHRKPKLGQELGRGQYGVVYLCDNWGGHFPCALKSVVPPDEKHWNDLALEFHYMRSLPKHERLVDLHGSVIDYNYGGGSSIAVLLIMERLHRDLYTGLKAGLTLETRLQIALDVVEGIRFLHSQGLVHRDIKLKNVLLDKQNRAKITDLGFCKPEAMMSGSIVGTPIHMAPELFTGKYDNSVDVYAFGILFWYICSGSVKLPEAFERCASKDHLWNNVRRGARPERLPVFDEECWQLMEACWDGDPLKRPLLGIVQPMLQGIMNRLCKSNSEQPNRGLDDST
# [6] = molecular target: T2, Mitogen-activated protein kinase kinase kinase kinase 2 (Homo sapiens) (UniProt Q12851); assay: Selectivity interaction (KinomeScan (DiscoverX)) EUB0000607a MAP4K2; settings: at 10 µM
# T2 sequence (whole entry): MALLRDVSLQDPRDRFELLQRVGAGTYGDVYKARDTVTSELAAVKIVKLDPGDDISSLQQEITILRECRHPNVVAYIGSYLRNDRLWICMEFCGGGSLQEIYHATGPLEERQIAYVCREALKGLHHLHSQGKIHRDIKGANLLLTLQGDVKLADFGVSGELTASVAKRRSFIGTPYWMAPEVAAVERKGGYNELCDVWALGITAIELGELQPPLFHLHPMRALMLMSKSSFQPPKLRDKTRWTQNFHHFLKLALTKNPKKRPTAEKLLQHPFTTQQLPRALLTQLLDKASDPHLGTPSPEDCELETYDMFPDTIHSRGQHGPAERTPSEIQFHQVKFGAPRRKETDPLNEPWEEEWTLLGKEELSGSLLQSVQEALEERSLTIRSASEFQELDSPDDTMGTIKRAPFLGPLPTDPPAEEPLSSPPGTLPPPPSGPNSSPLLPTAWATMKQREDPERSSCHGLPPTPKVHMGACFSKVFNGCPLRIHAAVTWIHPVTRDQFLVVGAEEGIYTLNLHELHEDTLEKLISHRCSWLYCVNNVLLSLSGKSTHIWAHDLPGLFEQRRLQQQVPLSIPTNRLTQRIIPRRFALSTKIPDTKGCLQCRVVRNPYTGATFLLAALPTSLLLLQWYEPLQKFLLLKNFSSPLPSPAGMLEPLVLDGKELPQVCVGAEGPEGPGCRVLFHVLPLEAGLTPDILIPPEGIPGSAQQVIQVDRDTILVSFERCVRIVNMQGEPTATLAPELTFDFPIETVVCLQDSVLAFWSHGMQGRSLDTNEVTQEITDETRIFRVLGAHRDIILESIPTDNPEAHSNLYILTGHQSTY
# [7] = molecular target: T3, Myosin light chain kinase family member 4 (Homo sapiens) (UniProt Q86YV6); assay: Selectivity interaction (KinomeScan (DiscoverX)) EUB0000607a MYLK4; settings: at 10 µM
# T3 sequence (whole entry): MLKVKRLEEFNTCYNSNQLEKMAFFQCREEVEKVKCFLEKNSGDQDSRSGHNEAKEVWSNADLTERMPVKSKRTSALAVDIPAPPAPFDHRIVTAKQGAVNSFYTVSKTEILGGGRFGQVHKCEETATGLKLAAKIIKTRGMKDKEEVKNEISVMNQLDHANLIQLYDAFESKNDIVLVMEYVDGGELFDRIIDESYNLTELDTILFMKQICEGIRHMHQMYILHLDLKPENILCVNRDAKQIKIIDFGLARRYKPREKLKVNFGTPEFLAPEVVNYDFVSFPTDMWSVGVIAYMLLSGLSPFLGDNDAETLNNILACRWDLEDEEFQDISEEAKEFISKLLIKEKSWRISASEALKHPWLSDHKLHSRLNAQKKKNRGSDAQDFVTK
# [8] = molecular target: Ribosomal protein S6 kinase alpha-3 (Homo sapiens, UniProt P51812); assay: Selectivity interaction (Kinase panel (KiNativ target engagement assay in Jurkat cells)) EUB0001635a RPS6KA3; format: cell-based; settings: Selectivity number of off-targets 0.0, Selectivity number of targets 233.0, Source Knowledge https://www.sciencedirect.com/science/article/pii/S2451945619300674?via%3Dihub, at 1 µM
# Ribosomal protein S6 kinase alpha-3, sequence (P51812 whole entry): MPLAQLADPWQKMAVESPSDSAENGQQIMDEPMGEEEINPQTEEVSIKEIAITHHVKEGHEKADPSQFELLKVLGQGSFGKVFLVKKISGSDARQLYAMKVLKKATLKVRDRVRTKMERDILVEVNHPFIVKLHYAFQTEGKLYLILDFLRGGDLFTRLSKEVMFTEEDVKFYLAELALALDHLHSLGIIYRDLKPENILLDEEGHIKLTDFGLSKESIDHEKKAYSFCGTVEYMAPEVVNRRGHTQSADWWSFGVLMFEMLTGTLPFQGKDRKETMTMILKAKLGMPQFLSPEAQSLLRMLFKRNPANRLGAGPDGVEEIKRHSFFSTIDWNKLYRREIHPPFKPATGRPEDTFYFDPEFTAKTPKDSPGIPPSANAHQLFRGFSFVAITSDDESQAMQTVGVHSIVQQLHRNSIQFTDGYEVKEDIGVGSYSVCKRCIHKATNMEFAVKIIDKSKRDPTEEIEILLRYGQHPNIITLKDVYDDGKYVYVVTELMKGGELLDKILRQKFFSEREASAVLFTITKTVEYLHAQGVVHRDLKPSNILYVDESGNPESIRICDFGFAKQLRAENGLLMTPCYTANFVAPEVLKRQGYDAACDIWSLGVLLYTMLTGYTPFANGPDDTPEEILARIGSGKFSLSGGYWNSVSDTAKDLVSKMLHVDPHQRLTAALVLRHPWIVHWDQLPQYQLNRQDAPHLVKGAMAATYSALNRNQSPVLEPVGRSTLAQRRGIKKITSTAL
# [9] = molecular target: Calcium/calmodulin-dependent protein kinase type 1D (Homo sapiens) (UniProt Q8IU85); assay: Selectivity interaction (Kinase panel (KiNativ target engagement assay in Jurkat cells)) EUB0001635a CAMK1D; format: cell-based; settings: at 1 µM
# Calcium/calmodulin-dependent protein kinase type 1D (Homo sapiens), sequence (Q8IU85 whole entry, looked up): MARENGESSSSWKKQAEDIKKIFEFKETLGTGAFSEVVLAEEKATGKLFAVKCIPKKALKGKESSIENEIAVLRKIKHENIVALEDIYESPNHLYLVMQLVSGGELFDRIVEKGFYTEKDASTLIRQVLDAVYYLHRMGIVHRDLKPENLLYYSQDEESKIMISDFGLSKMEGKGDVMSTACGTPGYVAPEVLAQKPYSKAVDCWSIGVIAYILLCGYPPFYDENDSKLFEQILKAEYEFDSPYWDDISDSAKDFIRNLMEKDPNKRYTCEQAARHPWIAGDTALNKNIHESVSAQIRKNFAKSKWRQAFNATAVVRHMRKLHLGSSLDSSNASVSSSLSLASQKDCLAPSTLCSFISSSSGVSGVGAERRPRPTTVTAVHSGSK
# [10] = molecular target: Bone morphogenetic protein receptor type-1A (Homo sapiens, UniProt P36894); assay: Selectivity interaction (KinomeScan (DiscoverX)) EUB0000666a BMPR1A; settings: at 10 µM
# Bone morphogenetic protein receptor type-1A, sequence (P36894 whole entry): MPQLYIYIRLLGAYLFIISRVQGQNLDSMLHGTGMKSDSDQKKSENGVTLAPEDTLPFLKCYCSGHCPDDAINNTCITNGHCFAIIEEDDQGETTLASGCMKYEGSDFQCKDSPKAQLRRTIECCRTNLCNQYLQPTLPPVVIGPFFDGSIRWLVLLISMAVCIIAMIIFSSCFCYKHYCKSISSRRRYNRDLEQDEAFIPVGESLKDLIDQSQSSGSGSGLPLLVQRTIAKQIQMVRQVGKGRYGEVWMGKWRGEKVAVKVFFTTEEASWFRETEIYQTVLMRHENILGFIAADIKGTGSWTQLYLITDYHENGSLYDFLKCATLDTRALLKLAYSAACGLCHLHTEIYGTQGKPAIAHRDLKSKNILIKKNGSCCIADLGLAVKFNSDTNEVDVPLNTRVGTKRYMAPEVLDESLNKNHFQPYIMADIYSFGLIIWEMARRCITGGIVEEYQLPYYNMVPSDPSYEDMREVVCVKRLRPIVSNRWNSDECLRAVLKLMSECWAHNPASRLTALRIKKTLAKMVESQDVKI
# Ribosomal protein S6 kinase beta-1, sequence (P23443 whole entry, looked up): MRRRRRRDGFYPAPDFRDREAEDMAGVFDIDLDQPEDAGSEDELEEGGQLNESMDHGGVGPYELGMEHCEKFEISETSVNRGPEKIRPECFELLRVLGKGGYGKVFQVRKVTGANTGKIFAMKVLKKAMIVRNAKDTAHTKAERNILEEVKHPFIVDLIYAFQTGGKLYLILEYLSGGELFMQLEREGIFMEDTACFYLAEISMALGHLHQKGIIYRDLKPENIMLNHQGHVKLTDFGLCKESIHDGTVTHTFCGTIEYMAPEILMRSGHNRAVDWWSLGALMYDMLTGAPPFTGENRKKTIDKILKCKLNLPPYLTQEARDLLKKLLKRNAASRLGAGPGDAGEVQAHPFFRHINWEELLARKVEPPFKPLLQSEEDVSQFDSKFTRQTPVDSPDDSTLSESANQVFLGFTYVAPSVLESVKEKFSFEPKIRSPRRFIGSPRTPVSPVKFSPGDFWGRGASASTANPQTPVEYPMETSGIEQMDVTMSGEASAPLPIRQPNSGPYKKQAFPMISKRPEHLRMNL
smiles,measurement,setting,value
CN(C)C/C=C/C(=O)Nc1ccc(C(=O)N2CCCC(Nc3ncc(Cl)c(-c4c[nH]c5ccccc45)n3)C2)cc1 (configuration not stated),% of control,[1],83%
Cc1cc(CN)cc(C)c1-c1ncn(C)c1-c1cncn1C,% activity,[2]; at 1 µM,> 90%
same,% activity,[2]; at 10 µM,> 80%
COCC(=O)NC/C=C/c1ccc2ncnc(Nc3ccc(Oc4ccc(C)nc4)c(C)c3)c2c1 [CP-724714],% of control,[3],81%
Nc1cnc(N2CCc3cc(S(=O)(=O)Nc4c(F)cc(Cl)cc4F)cc(N4CCCC4=O)c32)nc1 [TP-020n],% of control,[4],97%
O[C@H]1CC[C@H](Nc2ncc3nc(Nc4c(F)cc(F)cc4F)n([C@H]4CCOC4)c3n2)CC1,% of control,[5],91%
CNC(=O)Nc1ccc(-c2nc(N3CC4CCC(C3)O4)c3cnn(C4CCC5(CC4)OCCO5)c3n2)cc1,% of control,[6],100%
same,% of control,[7],100%
C=CC(=O)Nc1ccc(C(=O)Nc2[nH]nc3c2CN(C(=O)N[C@H](CN(C)C)c2ccccc2)C3(C)C)cc1,% of engagement,[8],-18.2%
same,% of engagement,"[9]; Selectivity number of off-targets 0.0, Selectivity number of targets 233.0, Source Knowledge https://www.sciencedirect.com/science/article/pii/S2451945619300674?via%3Dihub",18.9%
same,% of engagement,[9],8.9%
O=C(NOC[C@H](O)CO)c1ccc(F)c(F)c1Nc1ccc(I)cc1F,% of control,[10],100%
